From patent publication US9113629B2, “4-amino-6-(4-substituted-phenyl)-picolinates and 6-amino-2-(4-substituted-phenyl)-pyrimidine-4-carboxylates and their use as herbicides” (DOW AGROSCIENCES LLC, priority 2013, dated 2015)
Like-named read-outs stand apart in the source and are kept apart here.

Columns and labels:
[1] = tested on: Key Grass and Sedge Weeds as well as Grass Crops; test: Post-emergent Test II herbicidal activity (Table 6); type: in vivo; settings: post-emergence, 336 h; for pest or weed control at 70 g/ha: application rate 70 g ai/ha; for pest or weed control at 140 g/ha: application rate 140 g ai/ha
Outline: (§1)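 Spray rates: a highest rate plus ½×, ¼×, ⅛×, 1/16×, all delivered at 187 L/ha to plants at the first–second true leaf stage. Readout is a visual percent injury score at 14 d, where 100 means complete kill.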

[2] = tested on: Key Broadleaf Weed and Crop Species; test: Post-emergent Test II herbicidal activity (Table 5); type: in vivo; settings: post-emergence, 336 h, post-emergent, 14 days after application; for pest or weed control at 70 g/ha: 70 g ai/ha; for pest or weed control at 140 g/ha: 140 g ai/ha
Outline: as §1

[3] = CYPES: yellow nutsedge (Cyperus esculentus), read-out: Visual Growth Reduction (%) 14 Days After Application, CYPES
[4] = DIGSA: crabgrass (Digitaria sanguinalis), read-out: Visual Growth Reduction (%) 14 Days After Application, DIGSA
[5] = ECHCG: barnyardgrass (Echinochloa crus-galli), read-out: Visual Growth Reduction (%) 14 Days After Application, ECHCG
[6] = ORYSA: rice (Oryza sativa), read-out: Visual Growth Reduction (%) 14 Days After Application, ORYSA
[7] = SETFA: giant foxtail (Setaria faberi), read-out: Visual Growth Reduction (%) 14 Days After Application, SETFA
[8] = SORVU: grain sorghum (Sorghum vulgare), read-out: Visual Growth Reduction (%) 14 Days After Application, SORVU
[9] = TRZSS (wheat, Triticum aestivum), read-out: Visual Growth Reduction (%) 14 Days After Application, TRZSS
[10] = ZEAMX: maize, corn (Zea mays), read-out: Visual Growth Reduction (%) 14 Days After Application, ZEAMX
[11] = ABUTH: velvetleaf (Abutilon theophrasti), read-out: Visual Growth Reduction (%) 14 Days After Application ABUTH
[12] = AMARE: redroot pigweed (Amaranthus retroflexus), read-out: Visual Growth Reduction (%) 14 Days After Application AMARE
[13] = BRSNN: oilseed-rape, canola (Brassica napus), read-out: Visual Growth Reduction (%) 14 Days After Application BRSNN
[14] = CHEAL: lambsquarters (Chenopodium album), read-out: Visual Growth Reduction (%) 14 Days After Application CHEAL
[15] = EPHHL: wild poinsettia (Euphorbia heterophylla), read-out: Visual Growth Reduction (%) 14 Days After Application EPHHL
[16] = HELAN: sunflower (Helianthus annuus), read-out: Visual Growth Reduction (%) 14 Days After Application HELAN
[17] = VIOTR: wild pansy (Viola tricolor), read-out: Visual Growth Reduction (%) 14 Days After Application VIOTR

Question: Which results are given for `COC(=O)c1nc(-c2c(F)cc(I)c(F)c2F)cc(N)c1Cl` [Compound 90]?
Answer: pest or weed control at 70 g/ha [1, 3]: 95 to 100%; pest or weed control at 140 g/ha [1, 3]: 95 to 100%; pest or weed control at 70 g/ha [1, 4]: 85 to 94%; pest or weed control at 140 g/ha [1, 4]: 75 to 84%; pest or weed control at 70 g/ha [1, 5]: 85 to 94%; pest or weed control at 140 g/ha [1, 5]: 85 to 94%; pest or weed control at 70 g/ha [1, 6]: 30 to 44%; pest or weed control at 140 g/ha [1, 6]: 0 to 29%; pest or weed control at 70 g/ha [1, 7]: 85 to 94%; pest or weed control at 140 g/ha [1, 7]: 85 to 94%; pest or weed control at 70 g/ha [1, 8]: 95 to 100%; pest or weed control at 140 g/ha [1, 8]: 95 to 100%; pest or weed control at 70 g/ha [1, 9]: 30 to 44%; pest or weed control at 140 g/ha [1, 9]: 45 to 59%; pest or weed control at 70 g/ha [1, 10]: 60 to 74%; pest or weed control at 140 g/ha [1, 10]: 60 to 74%; melting point: 176.2 to 178.7 °C; pest or weed control at 70 g/ha [2, 11]: 85 to 94%; pest or weed control at 140 g/ha [2, 11]: 85 to 94%; pest or weed control at 70 g/ha [2, 12]: 95 to 100%; pest or weed control at 140 g/ha [2, 12]: 95 to 100%; pest or weed control at 70 g/ha [2, 13]: 95 to 100%; pest or weed control at 140 g/ha [2, 13]: 95 to 100%; pest or weed control at 70 g/ha [2, 14]: 95 to 100%; pest or weed control at 140 g/ha [2, 14]: 95 to 100%; pest or weed control at 70 g/ha [2, 15]: 95 to 100%; pest or weed control at 140 g/ha [2, 15]: 95 to 100%; pest or weed control at 70 g/ha [2, 16]: 30 to 44%; pest or weed control at 140 g/ha [2, 16]: 75 to 84%; pest or weed control at 70 g/ha [2, 17]: 95 to 100%; pest or weed control at 140 g/ha [2, 17]: 95 to 100%
